Consider 23 molecules from US7772180B2, “Hepatitis C virus inhibitors” (Bristol-Myers Squibb Company, priority 2006, dated 2010).

As usually defined, the pEC50 is the EC50 on a negative log10 scale, so that one unit is a factor of ten. For orientation: pIC50 means −log10 of the IC50, conventionally taken in molar units.

pEC50, pIC50: −log10 of the molar value. Read-outs that look alike come from different tables or passages of the source.

The test system of test [1] is HCV replicon (strain 1b) in HUH-7 cells. Briefly: HCV replicon FRET assay. It is filed as cell-based, Hepatitis C virus. On the technique in general: Replicon systems follow genome replication, usually without infectious particles.
Test [2] deals with T1, HCV NS3/4A protease complex, BMS strain (UniProt P27958, species not given/STRAIN_BMS).
T1 construct: other: NS3/4A BMS strain; activity range class; numeric values, unit not given; said of H77 and J4L6S; fused on or other part: A three-lysine solubilising tail at the C-terminus of NS4A; A His tag is implied by the pET21b vector and Ni-NTA purification; Both are printed for the H77 and J4L6S constructs and apply to BMS by inference
T1 sequence (P27958 1027-1657, change not shown, one chain of several): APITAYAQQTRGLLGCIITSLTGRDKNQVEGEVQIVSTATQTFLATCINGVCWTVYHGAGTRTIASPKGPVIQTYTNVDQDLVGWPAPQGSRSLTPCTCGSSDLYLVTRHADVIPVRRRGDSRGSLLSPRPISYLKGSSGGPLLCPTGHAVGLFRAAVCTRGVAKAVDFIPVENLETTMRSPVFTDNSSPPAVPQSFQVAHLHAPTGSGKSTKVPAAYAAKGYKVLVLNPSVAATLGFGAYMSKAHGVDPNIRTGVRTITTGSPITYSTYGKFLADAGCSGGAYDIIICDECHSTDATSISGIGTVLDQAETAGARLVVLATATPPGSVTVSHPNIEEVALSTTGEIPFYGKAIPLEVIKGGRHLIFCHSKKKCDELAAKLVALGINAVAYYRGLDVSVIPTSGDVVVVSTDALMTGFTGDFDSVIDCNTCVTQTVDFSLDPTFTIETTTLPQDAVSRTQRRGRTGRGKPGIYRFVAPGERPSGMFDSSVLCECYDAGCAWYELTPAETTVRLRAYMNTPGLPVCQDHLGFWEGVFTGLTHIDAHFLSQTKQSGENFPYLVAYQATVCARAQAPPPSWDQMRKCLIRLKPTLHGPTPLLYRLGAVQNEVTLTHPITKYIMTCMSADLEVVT
Briefly: FRET peptide assay to monitor HCV NS3/4A proteolytic activity (BMS strain). Conditions: read-out: HCV Protease (IC50), NS3/4A BMS strain. It is filed as biochemical, Hepatitis C virus (genotype 1a). The procedure, abridged: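 Inhibition measured by real-time fluorescence increase as the protease cleaves RET S1 FRET depsipeptide (2 μM final). Enzyme: >90% pure BMS-strain (1a) NS3/4A at 2-3 nM final, or 300 pM with 50 μg/ml BSA for potent compounds. Buffer: 50 mM HEPES pH 7.5, 0.15 M NaCl, 0.1% Triton, 15% glycerol, 10 mM βME.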

Where [3] appears, read: Hepatitis C virus, Huh-7, read-out: HCV Pro Replicon (EC50), HCV replicon cell assay, activity range class.
The mark [4] stands for this setting: Hepatitis C virus, Huh-7, read-out: HCV Pro Replicon (EC50), HCV replicon cell assay, numeric values, unit inferred.
Where [5] appears, read: read-out: HCV Pro Replicon (EC50), HCV replicon cell assay, activity range class.

For `C=C[C@@H]1C[C@]1(NC(=O)[C@@H]1C[C@@H](Oc2ncc(OC)c3ccc(Cl)cc23)CN1C(=O)[C@H](Nc1cccc(C(=O)O)c1)C(C)(C)C)C(=O)NS(=O)(=O)C1CC1` [211 second isomer, N-(3-carboxyphenyl)-3-methyl-D-valyl-(4R)-4-((7-chloro-4-methoxy-1-isoquinolinyl)oxy)-N-((1R,2S)-1-((cyclopropylsulfonyl)carbamoyl)-2-vinylcyclopropyl)-L-prolinamide], the negative logarithm of the EC50 (pEC50) in test [1] (setting [3]) was 7.00 to 8.52. For the same molecule, the negative-log IC50 (pIC50) in test [2] (activity range class) was < 6.70.
On to `C=C[C@@H]1C[C@]1(NC(=O)[C@@H]1C[C@@H](Oc2ncc(OC)c3ccc(Cl)cc23)CN1C(=O)[C@@H](Nc1cccc(C(=O)OC(C)C)c1)C(C)(C)C)C(=O)NS(=O)(=O)C1CC1` [231 first isomer, N-(3-(isopropoxycarbonyl)phenyl)-3-methyl-L-valyl-(4R)-4-((7-chloro-4-methoxy-1-isoquinolinyl)oxy)-N-((1R,2S)-1-((cyclopropylsulfonyl)carbamoyl)-2-vinylcyclopropyl)-L-prolinamide], for which the negative logarithm of the EC50 (pEC50) in test [1] (setting [3]) is 7.00 to 8.52. Besides, the pIC50 in test [2] (activity range class) was 7.70 to 9.22.
Take `C=C[C@@H]1C[C@]1(NC(=O)[C@@H]1C[C@@H](Oc2ncc(OC)c3ccc(Cl)cc23)CN1C(=O)C(Nc1cccc(C#N)c1)C(C)(C)C)C(=O)NS(=O)(=O)C1CC1` (stereo partly shown) [Compound 203A]: in test [1] (setting [4]), the pEC50 was 8.81. Besides, in test [2] (numeric values, unit inferred), the pIC50 was 8.40.
Regarding `C=C[C@@H]1C[C@]1(NC(=O)[C@@H]1C[C@@H](Oc2ncc(OC)c3ccc(Cl)cc23)CN1C(=O)C(C)Nc1nsnc1OCC)C(=O)NS(=O)(=O)C1CC1` (stereo partly shown) [Compound 239], in test [1] (setting [3]), the negative logarithm of the EC50 (pEC50) was 6.00 to 7.00. Also, the pIC50 in test [2] (activity range class) is < 6.70.
Consider `C=C[C@@H]1C[C@]1(NC(=O)[C@@H]1C[C@@H](Oc2nccc3cc(OC)ccc23)CN1C(=O)[C@H](Nc1cccnc1)C(C)(C)C)C(=O)NS(=O)(=O)C1CC1` [Compound 13B, 3-methyl-N-3-pyridinyl-D-valyl-(4R)—N-((1R,2S)-1-((cyclopropylsulfonyl)carbamoyl)-2-vinylcyclopropyl)-4-((6-methoxy-1-isoquinolinyl)oxy)-L-prolinamide], for which, in test [1] (setting [4]), the pEC50 was 5.24. Moreover, the pIC50 in test [2] (numeric values, unit inferred) was 5.92.
For `C=C[C@@H]1C[C@]1(NC(=O)[C@@H]1C[C@@H](Oc2ncc(OC)c3ccc(Cl)cc23)CN1C(=O)[C@@H](Nc1ccc(C(=O)N(C)C)cc1)C(C)(C)C)C(=O)NS(=O)(=O)C1CC1` [221 first isomer, N-(4-(dimethylcarbamoyl)phenyl)-3-methyl-L-valyl-(4R)-4-((7-chloro-4-methoxy-1-isoquinolinyl)oxy)-N-((1R,2S)-1-((cyclopropylsulfonyl)carbamoyl)-2-vinylcyclopropyl)-L-prolinamide], the pEC50 in test [1] (setting [3]) is 6.00 to 7.00. Further, the pIC50 in test [2] (activity range class) is 7.70 to 9.22.
Taken in the same sequence, the figures for `C=C[C@@H]1C[C@]1(NC(=O)[C@@H]1C[C@@H](Oc2ncc(OC)c3ccc(Cl)cc23)CN1C(=O)[C@H](Nc1cccc(C(=O)NC(C)(C)C)c1)C(C)(C)C)C(=O)NS(=O)(=O)C1CC1` [212 second isomer, N-(3-(tert-butylcarbamoyl)phenyl)-3-methyl-D-valyl-(4R)-4-((7-chloro-4-methoxy-1-isoquinolinyl)oxy)-N-((1R,2S)-1-((cyclopropylsulfonyl)carbamoyl)-2-vinylcyclopropyl)-L-prolinamide] were 7.00 to 8.52 and 7.70 to 9.22.
Taken in the same sequence, the figures for `C=C[C@@H]1C[C@]1(NC(=O)[C@@H]1C[C@@H](Oc2ncc(OC)c3ccc(Cl)cc23)CN1C(=O)[C@@H](Nc1cccc(C(=O)NC(C)(C)C)c1)C(C)(C)C)C(=O)NS(=O)(=O)C1CC1` [212 first isomer, N-(3-(tert-butylcarbamoyl)phenyl)-3-methyl-L-valyl-(4R)-4-((7-chloro-4-methoxy-1-isoquinolinyl)oxy)-N-((1R,2S)-1-((cyclopropylsulfonyl)carbamoyl)-2-vinylcyclopropyl)-L-prolinamide] were 6.00 to 7.00 and < 6.70.
For `C=C[C@@H]1C[C@]1(NC(=O)[C@@H]1C[C@@H](Oc2nccc3cc(OC)ccc23)CN1C(=O)C(Nc1ccc(C(F)(F)F)cn1)C(C)C)C(=O)NS(=O)(=O)C1CC1` (single isomer, unassigned) [Compound 2] the same measures were 6.00 to 7.00 and 6.70 to 7.70.
As to `C=C[C@@H]1C[C@]1(NC(=O)[C@@H]1C[C@@H](Oc2nc(N(C)C)cc3c(OC)cccc23)CN1C(=O)C(Nc1cccc(C)n1)C(C)(C)C)C(=O)NS(=O)(=O)C1CC1` (single isomer, unassigned) [Compound 38A], the pEC50 in test [1] (setting [3]) is 7.00 to 8.52. Besides, the pIC50 in test [2] (activity range class) was 7.70 to 9.22.
Consider `C=C[C@@H]1C[C@]1(NC(=O)[C@@H]1C[C@@H](Oc2nccc3cc(OC)ccc23)CN1C(=O)C(Nc1ccc(OC)nc1)C(C)(C)C)C(=O)NS(=O)(=O)C1CC1` (single isomer, unassigned) [407 second isomer], for which the pEC50 in test [1] (setting [5]) was 6.00 to 7.00. Also, the pIC50 in test [2] (activity range class) was 7.70 to 9.22.
As for `C=C[C@@H]1C[C@]1(NC(=O)[C@@H]1C[C@@H](Oc2ncc(OC)c3ccc(Cl)cc23)CN1C(=O)C(Nc1nsnc1OCC)C(C)(C)C)C(=O)NS(=O)(=O)C1CC1` (stereo partly shown) [Compound 243], in test [1] (setting [3]), the negative-log EC50 (pEC50) was 7.00 to 8.52. For the same molecule, in test [2] (activity range class), the pIC50 is 7.70 to 9.22.
Regarding `C=C[C@@H]1C[C@]1(NC(=O)[C@@H]1C[C@@H](Oc2ncc(OC)c3ccc(Cl)cc23)CN1C(=O)C(Nc1ccc(OC)nc1)C(C)(C)C)C(=O)NS(=O)(=O)C1CC1` (single isomer, unassigned) [408 second isomer], the pEC50 in test [1] (setting [5]) is 6.00 to 7.00. Moreover, the pIC50 in test [2] (activity range class) is < 6.70.
With `C=C[C@@H]1C[C@]1(NC(=O)[C@@H]1C[C@@H](Oc2ncc(OC)c3ccc(Cl)cc23)CN1C(=O)C(Nc1ccc(C(=O)OC(C)(C)C)cc1)C(C)(C)C)C(=O)NS(=O)(=O)C1CC1` (stereo partly drawn) [204 second isomer], in test [1] (setting [5]), the pEC50 is < 6.00. The pIC50 in test [2] (activity range class) was < 6.70.
With `C=C[C@@H]1C[C@]1(NC(=O)[C@@H]1C[C@@H](Oc2ncc(OC)c3ccc(Cl)cc23)CN1C(=O)C(CC)Nc1nsnc1OC)C(=O)NS(=O)(=O)C1CC1` (stereo partly shown) [Compound 240], the pEC50 in test [1] (setting [3]) is 6.00 to 7.00. Besides, the pIC50 in test [2] (activity range class) was 7.70 to 9.22.
In the case of `C=C[C@@H]1C[C@]1(NC(=O)[C@@H]1C[C@@H](Oc2ncc(OC)c3ccc(Cl)cc23)CN1C(=O)[C@@H](Nc1ccc(C(N)=O)cc1)C(C)(C)C)C(=O)NS(=O)(=O)C1CC1` [226 first isomer, N-(4-carbamoylphenyl)-3-methyl-L-valyl-(4R)-4-((7-chloro-4-methoxy-1-isoquinolinyl)oxy)-N-((1R,2S)-1-((cyclopropylsulfonyl)carbamoyl)-2-vinylcyclopropyl)-L-prolinamide], the pEC50 in test [1] (setting [3]) was 7.00 to 8.52. The pIC50 in test [2] (activity range class) is 7.70 to 9.22.
`C=C[C@@H]1C[C@]1(NC(=O)[C@@H]1C[C@@H](Oc2ncc(OC)c3ccc(Cl)cc23)CN1C(=O)C(Nc1cccc(OC)c1)C(C)(C)C)C(=O)NS(=O)(=O)C1CC1` (single isomer, unassigned) [Compound 201A]: the pEC50 in test [1] (setting [4]) is 8.37. The pIC50 in test [2] (numeric values, unit inferred) was 8.40.
In the case of `C=C[C@@H]1C[C@]1(NC(=O)[C@@H]1C[C@@H](Oc2ncc(OC)c3ccc(Cl)cc23)CN1C(=O)[C@@H](Nc1ccc(S(=O)(=O)NCC)cc1)C(C)(C)C)C(=O)NS(=O)(=O)C1CC1` [223 first isomer, N-(4-(ethylsulfamoyl)phenyl)-3-methyl-L-valyl-(4R)-4-((7-chloro-4-methoxy-1-isoquinolinyl)oxy)-N-((1R,2S)-1-((cyclopropylsulfonyl)carbamoyl)-2-vinylcyclopropyl)-L-prolinamide], the pEC50 in test [1] (setting [3]) was 6.00 to 7.00. The pIC50 in test [2] (activity range class) was 7.70 to 9.22.
For `C=C[C@@H]1C[C@]1(NC(=O)[C@@H]1C[C@@H](Oc2ncc(OC)c3ccc(Cl)cc23)CN1C(=O)C(Nc1ccc(C)nc1)C(C)(C)C)C(=O)NS(=O)(=O)C1CC1` (single isomer, unassigned) [26 first isomer] the same measures were 7.00 to 8.52 and 7.70 to 9.22.
Taken in the same sequence, the figures for `C=C[C@@H]1C[C@]1(NC(=O)[C@@H]1C[C@@H](Oc2nccc3cc(OC)ccc23)CN1C(=O)C(Nc1cc(C(F)(F)F)ccn1)C(C)C)C(=O)NS(=O)(=O)C1CC1` (single isomer, unassigned) [Compound 9] were 7.00 to 8.52 and 7.70 to 9.22.
Taken in the same sequence, the figures for `C=C[C@@H]1C[C@]1(NC(=O)[C@@H]1C[C@@H](Oc2ncc(OC)c3ccc(Cl)cc23)CN1C(=O)C(C)Nc1nsnc1OC)C(=O)NS(=O)(=O)C1CC1` (stereo partly shown) [Compound 238] were 6.00 to 7.00 and 6.70 to 7.70.
Turning to `C=C[C@@H]1C[C@]1(NC(=O)[C@@H]1C[C@@H](Oc2ncc(OC)c3ccc(Cl)cc23)CN1C(=O)C(C)Nc1n[s+]([O-])nc1OC)C(=O)NS(=O)(=O)C1CC1` (stereo partly shown) [Compound 236], the pEC50 in test [1] (setting [3]) is < 6.00. Also, in test [2] (activity range class), the pIC50 was < 6.70.
With `C=C[C@@H]1C[C@]1(NC(=O)[C@@H]1C[C@@H](Oc2ncc(OC)c3ccc(Cl)cc23)CN1C(=O)[C@H](Nc1ccc(C(=O)O)cc1)C(C)(C)C)C(=O)NS(=O)(=O)C1CC1` [209 second isomer, N-(4-carboxyphenyl)-3-methyl-D-valyl-(4R)-4-((7-chloro-4-methoxy-1-isoquinolinyl)oxy)-N-((1R,2S)-1-((cyclopropylsulfonyl)carbamoyl)-2-vinylcyclopropyl)-L-prolinamide], in test [1] (setting [3]), the pEC50 was < 6.00. Also, the negative-log IC50 (pIC50) in test [2] (activity range class) was < 6.70.
